Results from patent US12187721B2, “Protein tyrosine phosphatase inhibitors” (Array BioPharma Inc., priority 2018, dated 2025).
Structures can show the parent of a compound that is named as a salt. Where two headings read alike, the source gives them in different places.

How the values were obtained:
[1] = target: T1, full-length SHP2 (His6-tagged SHP2(2-527)) (Homo sapiens, UniProt Q06124); test: SHP2 Enzymatic Assay (fluorescence intensity kinetic assay, DiFMUP hydrolysis); format: biochemical
T1 construct: His6-tagged SHP2(2-527); His6; made in house; host or cells: E. coli
In short: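 1 nM His6-SHP2(2-527), activated by 1 μM bis-phosphopeptide, hydrolysed 50 μM DiFMUP in 25 mM HEPES pH 7.4 with 1 mM DTT, 50 mM KCl and 2% DMSO. DiFMU fluorescence (Ex 355/Em 460 nm) was read kinetically for 15 min at ambient temperature.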

[2] = test system: ERK1/2 (Thr202/Tyr204) phosphorylation in KYSE520 cells; test: Cellular Phospho-p44/42 MAPK (Erk 1/2) (Thr202/Tyr204) Assay (In-Cell Western); format: cell-based; conditions: Homo sapiens, KYSE-520, 1 h, read-out: Biological Example 2 IC50 (nM)
Procedure: KYSE520 cells were obtained from DSMZ and grown in RPMI supplemented with 10% fetal bovine serum, pennicillin/streptomycin, 2 mM L-alanyl-L-glutamine dipeptide in 0.85% NaCl (Glutamax™), non-essential amino acids, and sodium pyruvate. Cells were plated in 96-well plates at 30,000 cells/well and allowed to attach overnight at 37° C./5% CO2. Cells were treated with compounds prepared as a 10-point, 1:3 dilution series (range: 20 μM-1 nM), with a final DMSO concentration of 0.5%. After 1 hour incubation, cells were fixed in 3.7% formaldehyde in Dulbecco's phosphate-buffered saline (“dPBS”) at room temperature for 20 minutes. Cells were then washed with dPBS and permeabilized in 100% MeOH at room temperature for 10 minutes. Following permeabilization, cells were washed in dPBS and incubated in LI-COR Blocking Buffer (LI-COR Biosciences, Cat #927-40000) for 1 hour or longer. Plates were then incubated with an antibody specific for the MEK-dependent ERK1/2 phosphorylation sites, threonine 202 and tyrosine 204 (Cell Signaling Technologies; Cat #9101), downstream of SHP2 in the MAP kinase signal transduction pathway, as well as GAPDH (Millipore; Cat #MAB374). pErk1/2 (Thr202/Tyr204) antibody was diluted in LI-COR blocking buffer containing 0.05% polysorbate-20 (Tween-20) at 1:250; GAPDH was diluted at 1:2,500. The plates were incubated overnight at 4° C. After washing with PBS/0.05% Tween-20, the cells were incubated with fluorescently-labeled secondary antibodies (Anti-rabbit-Alexa Flour680, Invitrogen Cat #A21109; Anti-mouse-IRDye800CW, Li-cor Bioscieces Cat #926-32210, both at 1:1000 dilution) for 1 hour. Cells were then washed, as above, and analyzed for fluorescence at both 680 nm and 800 nm wavelengths using the Aerius Infrared Imaging System (LI-COR Biosciences, Model 9250). Phosphorylated Erk1/2 (Thr202/Tyr204) signal was normalized to GAPDH signal for each well. IC50 values were calculated from the normalized values using a 4-parameter fit in BioAssay software. […] The reported IC50 in Table 2 may be from a single assay or the mean of multiple assays.

[3] = full-length SHP2 with 1 μM activating peptide, 50 μM DiFMUP, single assay or mean of multiple assays, read-out: Biological Example 1 IC50

T1 sequence (Q06124 2-527): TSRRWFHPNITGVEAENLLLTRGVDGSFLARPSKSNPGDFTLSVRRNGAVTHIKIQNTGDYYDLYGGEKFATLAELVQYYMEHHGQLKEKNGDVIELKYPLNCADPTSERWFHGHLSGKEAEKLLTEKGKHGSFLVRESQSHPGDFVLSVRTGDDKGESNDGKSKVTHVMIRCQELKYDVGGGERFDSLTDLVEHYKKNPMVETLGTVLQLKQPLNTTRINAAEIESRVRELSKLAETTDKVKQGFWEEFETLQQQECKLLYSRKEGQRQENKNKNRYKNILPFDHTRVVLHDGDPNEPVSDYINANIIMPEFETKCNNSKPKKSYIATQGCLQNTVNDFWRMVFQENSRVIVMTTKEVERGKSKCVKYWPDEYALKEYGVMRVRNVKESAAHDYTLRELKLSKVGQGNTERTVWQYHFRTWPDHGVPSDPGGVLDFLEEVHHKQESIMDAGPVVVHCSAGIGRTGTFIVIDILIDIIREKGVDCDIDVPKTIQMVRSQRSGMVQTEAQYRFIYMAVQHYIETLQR

Structure (SMILES)	IC50 [1]	IC50 [2]	IC50 [1, 3]
Nc1nccc(Sc2ccc3nc(N4CCC5(CC4)CC(F)(F)C[C@H]5N)cnc3n2)c1Cl (stereo in doubt) [Example 218, 8-(6-((2-amino-3-chloropyridin-4-yl)thio)pyrido[2,3-b]pyrazin-2-yl)-3,3-difluoro-8-azaspiro[4.5]decan-1-amine]	47 nM	67 nM	
CC1(N)CCN(c2cnc3nc(Sc4ccnc(N)c4Cl)ccc3n2)CC1 [Example 1, 4-((2-(4-amino-4-methylpiperidin-1-yl)pyrido[2,3-b]pyrazin-6-yl)thio)-3-chloropyridin-2-amine]		59 nM	33 nM
C[C@@H]1OCC2(CCN(c3cnc4nc(Sc5cccc(Cl)c5Cl)ccc4n3)CC2)[C@@H]1N [Example 4, (3S,4S)-8-(6-((2,3-dichlorophenyl)thio)pyrido[2,3-b]pyrazin-2-yl)-3-methyl-2-oxa-8-azaspiro[4,5]decan-4-amine]	64 nM	550 nM	
C[C@@H]1OCC2(CCN(c3cnc4nc(Sc5ccnc(N)c5Cl)ccc4n3)CC2)[C@@H]1N [Example 13, (3S,4S)-8-(6-((2-amino-3-chloropyridin-4-yl)thio)pyrido[2,3-b]pyrazin-2-yl)-3-methyl-2-oxa-8-azaspiro[4,5]decan-4-amine]	84 nM	79 nM	
C[C@@H]1OCC2(CCN(c3cnc4nc(Sc5ccnc(N6CCCC6)c5Cl)ccc4n3)CC2)[C@@H]1N [Example 25, (3S,4S)-8-(6-((3-chloro-2-(pyrrolidin-1-yl)pyridin-4-yl)thio)pyrido[2,3-b]pyrazin-2-yl)-3-methyl-2-oxa-8-azaspiro[4.5]decan-4-amine]	100 nM	650 nM	
CNc1nccc(Sc2ccc3nc(N4CCC5(CC4)CO[C@@H](C)[C@H]5N)cnc3n2)c1Cl [Example 33, (3S,4S)-8-(6-((3-chloro-2-(methylamino)pyridin-4-yl)thio)pyrido[2,3-b]pyrazin-2-yl)-3-methyl-2-oxa-8-azaspiro[4.5]decan-4-amine]	100 nM	80 nM	
Nc1nccc(Sc2ccc3nc(N4CCC[C@@H](N)CC4)cnc3n2)c1Cl [Example 41, (R)-1-(6-((2-amino-3-chloropyridin-4-yl)thio)pyrido[2,3-b]pyrazin-2-yl)azepan-4-amine]	56 nM	110 nM	
Cc1nccc(Sc2ccc3nc(N4CCC(N)(CO)CC4)cnc3n2)c1Cl [Example 57, (4-amino-1-(6-((3-chloro-2-methylpyridin-4-yl)thio)pyrido[2,3-b]pyrazin-2-yl)piperidin-4-yl)methanol]	49 nM	91 nM	
Cc1nccc(Sc2ccc3nc(N4[C@H]5CC[C@H]4CC(N)C5)cnc3n2)c1Cl (stereo partly drawn) [Example 67, (1R,3s,5S)-8-(6-((3-chloro-2-methylpyridin-4-yl)thio)pyrido[2,3-b]pyrazin-2-yl)-8-azabicyclo[3.2.1]octan-3-amine dihydrochloride]	42 nM	48 nM	
C[C@@H]1OCC2(CCN(c3cnc4nc(Sc5ccnc(N6CCC[C@H]6CO)c5Cl)ccc4n3)CC2)[C@@H]1N [Example 71, ((S)-1-(4-((2-((3S,4S)-4-amino-3-methyl-2-oxa-8-azaspiro[4.5]decan-8-yl)pyrido[2,3-b]pyrazin-6-yl)thio)-3-chloropyridin-2-yl)pyrrolidin-2-yl)methanol]	120 nM	176 nM	
Nc1nccc(Sc2ccc3nc(N4CCC5(CC4)Cc4ccccc4[C@H]5N)cnc3n2)c1Cl [Example 76, (S)-1′-(6-((2-amino-3-chloropyridin-4-yl)thio)pyrido[2,3-b]pyrazin-2-yl)-1,3-dihydrospiro[indene-2,4′-piperidin]-1-amine]		8 nM	28 nM
C[C@@H]1OCC2(CCN(c3cnc4nc(Sc5ccnc(N6CCC(O)CC6)c5Cl)ccc4n3)CC2)[C@@H]1N [Example 78, 1-(4-((2-((3S,4S)-4-amino-3-methyl-2-oxa-8-azaspiro[4.5]decan-8-yl)pyrido[2,3-b]pyrazin-6-yl)thio)-3-chloropyridin-2-yl)piperidin-4-ol]	331 nM	87 nM	
CN[C@H]1CCCN(c2cnc3nc(Sc4ccnc(N)c4Cl)ccc3n2)CC1 [Example 91, (S)-1-(6-((2-amino-3-chloropyridin-4-yl)thio)pyrido[2,3-b]pyrazin-2-yl)-N-methylazepan-4-amine]	106 nM	317 nM	
N[C@@H]1c2cccnc2CC12CCN(c1cnc3nc(Sc4ccnc(NCCO)c4Cl)ccc3n1)CC2 [Example 108, (S)-2-((4-((2-(5-amino-5,7-dihydrospiro[cyclopenta[b]pyridine-6,4′-piperidin]-1′-yl)pyrido[2,3-b]pyrazin-6-yl)thio)-3-chloropyridin-2-yl)amino)ethan-1-ol]	84 nM	11 nM	
Nc1nccc(Sc2ccc3nc(N4CCC5(CC4)Cc4ncc(F)cc4[C@H]5N)cnc3n2)c1Cl [Example 117, (S)-1′-(6-((2-amino-3-chloropyridin-4-yl)thio)pyrido[2,3-b]pyrazin-2-yl)-3-fluoro-5,7-dihydrospiro[cyclopenta[b]pyridine-6,4′-piperidin]-5-amine]		6 nM	50 nM
Nc1nccc(Sc2ccc3nc(N4CCC5(CC4)Cc4ncccc4[C@H]5N)cnc3n2)c1Cl [Example 125, (S)-1′-(6-((2-amino-3-chloropyridin-4-yl)thio)pyrido[2,3-b]pyrazin-2-yl)-5,7-dihydrospiro[cyclopenta[b]pyridine-6,4′-piperidin]-5-amine]		5 nM	38 nM
CC(C)(C#N)CNc1nccc(Sc2ccc3nc(N4CCC(C)(N)CC4)cnc3n2)c1Cl [Example 134, 3-((4-((2-(4-amino-4-methylpiperidin-1-yl)pyrido[2,3-b]pyrazin-6-yl)thio)-3-chloropyridin-2-yl)amino)-2,2-dimethylpropanenitrile]	238 nM	810 nM	
N[C@@H]1c2ccccc2CC12CCN(c1cnc3nc(Sc4ccnc5c4C(F)(F)C(=O)N5)ccc3n1)CC2 [Example 142, (S)-4-((2-(1-amino-1,3-dihydrospiro[indene-2,4′-piperidin]-1′-yl)pyrido[2,3-b]pyrazin-6-yl)thio)-3,3-difluoro-1,3-dihydro-2H-pyrrolo[2,3-b]pyridin-2-one]	26 nM	4 nM	
N[C@@H]1c2cccnc2CC12CCN(c1cnc3nc(Sc4cccnc4C(F)(F)F)ccc3n1)CC2 [Example 163, (S)-1′-(6-((2-(trifluoromethyl)pyridin-3-yl)thio)pyrido[2,3-b]pyrazin-2-yl)-5,7-dihydrospiro[cyclopenta[b]pyridine-6,4′-piperidin]-5-amine]	52 nM	30 nM	
Cc1ccc2c(c1)[C@@H](N)C1(CCN(c3cnc4nc(Sc5ccnc(N)c5Cl)ccc4n3)CC1)C2 [Example 178, (S)-1′-(6-((2-amino-3-chloropyridin-4-yl)thio)pyrido[2,3-b]pyrazin-2-yl)-6-methyl-1,3-dihydrospiro[indene-2,4′-piperidin]-1-amine]		17 nM	57 nM
C[C@@H]1OCC2(CCN(c3cnc4nc(Sc5ccnc(NCCO)c5Cl)ccc4n3)CC2)[C@@H]1N [Example 185, 2-((4-((2-((3S,4S)-4-amino-3-methyl-2-oxa-8-azaspiro[4.5]decan-8-yl)pyrido[2,3-b]pyrazin-6-yl)thio)-3-chloropyridin-2-yl)amino)ethan-1-ol]	408 nM	166 nM	
C[C@@H]1OCC2(CCN(c3cnc4nc(Sc5ccnc6[nH]ccc56)ccc4n3)CC2)[C@@H]1N [Example 189, (3S,4S)-8-(6-((1H-pyrrolo[2,3-b]pyridin-4-yl)thio)pyrido[2,3-b]pyrazin-2-yl)-3-methyl-2-oxa-8-azaspiro[4.5]decan-4-amine]	59 nM	98 nM	
Nc1nccc(Sc2ccc3nc(N4CC5CC(C4)N5)cnc3n2)c1Cl [Example 200, 4-((2-(3,6-diazabicyclo[3.1.1]heptan-3-yl)pyrido[2,3-b]pyrazin-6-yl)thio)-3-chloropyridin-2-amine]	48 nM	122 nM	
